Assay results reported in PubChem BioAssay (NCI).
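The concentration for 50% growth inhibition is given as GI50. The concentration for full growth arrest is given as TGI.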

Experiments:
Test in all cases: growth of human tumour cells (NCI), 384-well format
SF-539 CNS = system: SF-539 CNS
A549 NSCLC = system: A549 NSCLC
NCI-H522 lung = system: NCI-H522 lung
EKVX NSCLC = system: EKVX NSCLC
CAKI-1 renal = system: CAKI-1 renal
SR leukemia = system: SR leukemia
UACC-257 melanoma = system: UACC-257 melanoma
MDA-MB-435 melanoma = system: MDA-MB-435 melanoma
M14 melanoma = system: M14 melanoma
MALME-3M melanoma = system: MALME-3M melanoma
SN12C renal = system: SN12C renal
SK-MEL-5 melanoma = system: SK-MEL-5 melanoma
RPMI-8226 leukemia = system: RPMI-8226 leukemia
OVCAR-3 ovarian = system: OVCAR-3 ovarian
SF-295 CNS = system: SF-295 CNS
HOP-62 NSCLC = system: HOP-62 NSCLC
UACC-62 melanoma = system: UACC-62 melanoma
SK-OV-3 ovarian = system: SK-OV-3 ovarian
MOLT-4 leukemia = system: MOLT-4 leukemia
SK-MEL-28 melanoma = system: SK-MEL-28 melanoma
OVCAR-8 ovarian = system: OVCAR-8 ovarian
NCI-H460 NSCLC = system: NCI-H460 NSCLC
KM12 colon = system: KM12 colon
OVCAR-5 ovarian = system: OVCAR-5 ovarian
COLO 205 colon = system: COLO 205 colon
U251 glioblastoma = system: U251 glioblastoma
NCI-H23 lung = system: NCI-H23 lung
HS 578T breast = system: HS 578T breast
MDA-MB-231 breast = system: MDA-MB-231 breast
SF-268 CNS = system: SF-268 CNS
MDA-MB-468 breast = system: MDA-MB-468 breast
LOX IMVI melanoma = system: LOX IMVI melanoma
NCI/ADR-RES ovarian = system: NCI/ADR-RES ovarian
BT-549 breast = system: BT-549 breast
NCI-H322M lung = system: NCI-H322M lung
MCF7 breast = system: MCF7 breast
HCT-116 colon = system: HCT-116 colon
OVCAR-4 ovarian = system: OVCAR-4 ovarian
HL-60(TB) leukemia = system: HL-60(TB) leukemia
HCC-2998 colon = system: HCC-2998 colon
SNB-75 CNS = system: SNB-75 CNS
HOP-92 NSCLC = system: HOP-92 NSCLC
TK-10 renal = system: TK-10 renal
786-0 renal = system: 786-0 renal
RXF 393 renal = system: RXF 393 renal
PC-3 prostate = system: PC-3 prostate
SNB-19 CNS = system: SNB-19 CNS
T-47D breast = system: T-47D breast
CCRF-CEM leukemia = system: CCRF-CEM leukemia
HT29 colon = system: HT29 colon
ACHN renal = system: ACHN renal
K-562 leukemia = system: K-562 leukemia
NCI-H226 lung = system: NCI-H226 lung
SK-MEL-2 melanoma = system: SK-MEL-2 melanoma
SW-620 colon = system: SW-620 colon
DU-145 prostate = system: DU-145 prostate
IGROV1 ovarian = system: IGROV1 ovarian
UO-31 renal = system: UO-31 renal
A498 renal = system: A498 renal
HCT-15 colon = system: HCT-15 colon

C[C@@H](O)[C@@H](C)Oc1nc(Nc2ccc(S(=N)(=O)C3CC3)cc2)ncc1C(F)(F)F (stereo not given in full)
GI50 (SF-539 CNS): 17.9 nM
TGI (SF-539 CNS): 36.4 nM
GI50 (A549 NSCLC): 33.4 nM
TGI (A549 NSCLC): > 100000 nM
GI50 (NCI-H522 lung): < 10 nM
TGI (NCI-H522 lung): 24.9 nM
GI50 (EKVX NSCLC): 23.8 nM
TGI (EKVX NSCLC): 52 nM
GI50 (CAKI-1 renal): 32.2 nM
TGI (CAKI-1 renal): > 100000 nM
GI50 (SR leukemia): < 10 nM
TGI (SR leukemia): 13.2 nM
GI50 (UACC-257 melanoma): 17.7 nM
TGI (UACC-257 melanoma): 37.2 nM
GI50 (MDA-MB-435 melanoma): 23.3 nM
TGI (MDA-MB-435 melanoma): 64.5 nM
GI50 (M14 melanoma): 19.7 nM
TGI (M14 melanoma): 85.2 nM
GI50 (MALME-3M melanoma): 23.5 nM
TGI (MALME-3M melanoma): 46.6 nM
GI50 (SN12C renal): 16.6 nM
TGI (SN12C renal): 36.4 nM
GI50 (SK-MEL-5 melanoma): < 10 nM
TGI (SK-MEL-5 melanoma): 21.5 nM
GI50 (RPMI-8226 leukemia): 15.2 nM
TGI (RPMI-8226 leukemia): 28.9 nM
GI50 (OVCAR-3 ovarian): 18.2 nM
TGI (OVCAR-3 ovarian): 43.9 nM
GI50 (SF-295 CNS): 30.9 nM
TGI (SF-295 CNS): > 100000 nM
GI50 (HOP-62 NSCLC): 14.4 nM
TGI (HOP-62 NSCLC): 44.8 nM
GI50 (UACC-62 melanoma): 12.7 nM
TGI (UACC-62 melanoma): 27.9 nM
GI50 (SK-OV-3 ovarian): 41.7 nM
TGI (SK-OV-3 ovarian): > 100000 nM
GI50 (MOLT-4 leukemia): 20.2 nM
TGI (MOLT-4 leukemia): 35 nM
GI50 (SK-MEL-28 melanoma): 16.4 nM
TGI (SK-MEL-28 melanoma): 39.5 nM
GI50 (OVCAR-8 ovarian): 18.8 nM
TGI (OVCAR-8 ovarian): 73.7 nM
GI50 (NCI-H460 NSCLC): 12 nM
TGI (NCI-H460 NSCLC): 28.5 nM
GI50 (KM12 colon): 23.4 nM
TGI (KM12 colon): > 100000 nM
GI50 (OVCAR-5 ovarian): 16.8 nM
TGI (OVCAR-5 ovarian): 54.5 nM
GI50 (COLO 205 colon): 16.4 nM
TGI (COLO 205 colon): 42.6 nM
GI50 (U251 glioblastoma): 20.2 nM
TGI (U251 glioblastoma): 60 nM
GI50 (NCI-H23 lung): 17.1 nM
TGI (NCI-H23 lung): 36.1 nM
GI50 (HS 578T breast): 24.4 nM
TGI (HS 578T breast): 62.8 nM
GI50 (MDA-MB-231 breast): 28.3 nM
TGI (MDA-MB-231 breast): > 100000 nM
GI50 (SF-268 CNS): 20.1 nM
TGI (SF-268 CNS): 58.6 nM
GI50 (MDA-MB-468 breast): 15.9 nM
TGI (MDA-MB-468 breast): 30.2 nM
GI50 (LOX IMVI melanoma): 14.6 nM
TGI (LOX IMVI melanoma): 48.9 nM
GI50 (NCI/ADR-RES ovarian): 67.3 nM
TGI (NCI/ADR-RES ovarian): 406 nM
GI50 (BT-549 breast): 12.4 nM
TGI (BT-549 breast): 27.1 nM
GI50 (NCI-H322M lung): 21.2 nM
TGI (NCI-H322M lung): 46.7 nM
GI50 (MCF7 breast): 24.1 nM
TGI (MCF7 breast): > 100000 nM
GI50 (HCT-116 colon): 12.5 nM
TGI (HCT-116 colon): > 100000 nM
GI50 (OVCAR-4 ovarian): 21.3 nM
TGI (OVCAR-4 ovarian): 56.9 nM
GI50 (HL-60(TB) leukemia): < 10 nM
TGI (HL-60(TB) leukemia): 20.7 nM
GI50 (HCC-2998 colon): 12 nM
TGI (HCC-2998 colon): 33.3 nM
GI50 (SNB-75 CNS): 16.4 nM
TGI (SNB-75 CNS): 33 nM

COc1cc2c(Oc3ccc(NC(=O)C4(C(=O)Nc5ccc(F)cc5)CC4)cc3F)ccnc2cc1OCCCN1CCOCC1
GI50 (SF-539 CNS): 135 nM
TGI (SF-539 CNS): 489 nM
GI50 (A549 NSCLC): 329 nM
TGI (A549 NSCLC): 1170 nM
GI50 (NCI-H522 lung): 211 nM
TGI (NCI-H522 lung): 817 nM
GI50 (CAKI-1 renal): 183 nM
TGI (CAKI-1 renal): 584 nM
GI50 (SR leukemia): 131 nM
TGI (SR leukemia): 261 nM
GI50 (HOP-92 NSCLC): 107 nM
TGI (HOP-92 NSCLC): 421 nM
GI50 (UACC-257 melanoma): 265 nM
TGI (UACC-257 melanoma): 859 nM
GI50 (MDA-MB-435 melanoma): 331 nM
TGI (MDA-MB-435 melanoma): 1200 nM
GI50 (TK-10 renal): 648 nM
TGI (TK-10 renal): 1910 nM
GI50 (M14 melanoma): 293 nM
TGI (M14 melanoma): 882 nM
GI50 (MALME-3M melanoma): 185 nM
TGI (MALME-3M melanoma): 541 nM
GI50 (SN12C renal): 175 nM
TGI (SN12C renal): 1060 nM
GI50 ([…]-0 renal): 1190 nM
TGI (786-0 renal): 2420 nM
GI50 (RXF 393 renal): 158 nM
TGI (RXF 393 renal): 548 nM
GI50 (SK-MEL-5 melanoma): 333 nM
TGI (SK-MEL-5 melanoma): 1460 nM
GI50 (RPMI-8226 leukemia): 202 nM
TGI (RPMI-8226 leukemia): 492 nM
GI50 (PC-3 prostate): 1300 nM
TGI (PC-3 prostate): 2580 nM
GI50 (OVCAR-3 ovarian): 554 nM
TGI (OVCAR-3 ovarian): 1780 nM
GI50 (SF-295 CNS): 94 nM
TGI (SF-295 CNS): 1510 nM
GI50 (HOP-62 NSCLC): 668 nM
TGI (HOP-62 NSCLC): 1930 nM
GI50 (SNB-19 CNS): 1180 nM
TGI (SNB-19 CNS): 2410 nM
GI50 (UACC-62 melanoma): 369 nM
TGI (UACC-62 melanoma): 1550 nM
GI50 (T-47D breast): 1050 nM
TGI (T-47D breast): 2230 nM
GI50 (SK-OV-3 ovarian): 522 nM
TGI (SK-OV-3 ovarian): 1790 nM
GI50 (MOLT-4 leukemia): 42.5 nM
TGI (MOLT-4 leukemia): 137 nM
GI50 (SK-MEL-28 melanoma): 361 nM
TGI (SK-MEL-28 melanoma): 1430 nM
GI50 (OVCAR-8 ovarian): 1190 nM
TGI (OVCAR-8 ovarian): 2430 nM
GI50 (CCRF-CEM leukemia): 52.8 nM
TGI (CCRF-CEM leukemia): 189 nM
GI50 (HT29 colon): 324 nM
TGI (HT29 colon): 1220 nM
GI50 (NCI-H460 NSCLC): 219 nM
TGI (NCI-H460 NSCLC): 1130 nM
GI50 (ACHN renal): 205 nM
TGI (ACHN renal): 718 nM
TGI (KM12 colon): 931 nM
GI50 (K-562 leukemia): 40.3 nM
TGI (K-562 leukemia): 143 nM
GI50 (NCI-H226 lung): 276 nM
TGI (NCI-H226 lung): 966 nM
GI50 (OVCAR-5 ovarian): 911 nM
TGI (OVCAR-5 ovarian): 2120 nM
GI50 (COLO 205 colon): 211 nM
TGI (COLO 205 colon): 460 nM
GI50 (U251 glioblastoma): 1140 nM
TGI (U251 glioblastoma): 2360 nM
GI50 (NCI-H23 lung): 46.3 nM
TGI (NCI-H23 lung): 642 nM
GI50 (SK-MEL-2 melanoma): 300 nM
TGI (SK-MEL-2 melanoma): 1240 nM
GI50 (MDA-MB-231 breast): 361 nM
TGI (MDA-MB-231 breast): 1660 nM
GI50 (SW-620 colon): 201 nM
TGI (SW-620 colon): 747 nM
GI50 (SF-268 CNS): 781 nM
TGI (SF-268 CNS): 2020 nM
GI50 (DU-145 prostate): 1160 nM
TGI (DU-145 prostate): 2390 nM
GI50 (MDA-MB-468 breast): 270 nM
TGI (MDA-MB-468 breast): 547 nM
GI50 (LOX IMVI melanoma): 386 nM
TGI (LOX IMVI melanoma): 945 nM
GI50 (IGROV1 ovarian): 275 nM
TGI (IGROV1 ovarian): 990 nM
GI50 (NCI/ADR-RES ovarian): 436 nM
TGI (NCI/ADR-RES ovarian): 1600 nM
GI50 (BT-549 breast): 440 nM
TGI (BT-549 breast): 1510 nM
GI50 (UO-31 renal): 314 nM
TGI (UO-31 renal): 1110 nM
GI50 (NCI-H322M lung): 866 nM
TGI (NCI-H322M lung): 2100 nM
GI50 (MCF7 breast): 331 nM
TGI (MCF7 breast): 1440 nM
GI50 (HCT-116 colon): 379 nM
TGI (HCT-116 colon): 1570 nM
GI50 (OVCAR-4 ovarian): 409 nM
TGI (OVCAR-4 ovarian): 1770 nM
GI50 (HL-60(TB) leukemia): 194 nM
TGI (HL-60(TB) leukemia): 387 nM
GI50 (HCC-2998 colon): 1110 nM
TGI (HCC-2998 colon): 2320 nM
GI50 (A498 renal): 838 nM
TGI (A498 renal): 2080 nM
GI50 (HCT-15 colon): 419 nM
TGI (HCT-15 colon): 1590 nM
